Measured values from the supplement of paper PMC10307832.

Assays:
Assay in all cases: relative viability (nuclei count vs DMSO), 5 days (fraction); higher = more cells survive
[1] = compound: Cc1cnc(Nc2ccc(OCCN3CCCC3)cc2)nc1Nc1cccc(S(=O)(=O)NC(C)(C)C)c1 [Fedratinib] + Cc1cc(Nc2cc(N3CCN(C)CC3)nc(Sc3ccc(NC(=O)C4CC4)cc3)n2)n[nH]1 [Tozasertib] (partner 0.1 µM)
Method in brief: (§1)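 Medians of duplicate plates are given as relative viability. That measure is the nuclei count in treated wells divided by the count in vehicle wells. Counts were taken on 4× images of lung cancer cell lines in 1536-well plates, 5 days after pin-tool dosing the day after seeding with one drug alone or a fixed anchor-drug dose plus five library-drug doses (not always all listed) in √10 steps.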

[2] = compound: Cc1cnc(Nc2ccc(OCCN3CCCC3)cc2)nc1Nc1cccc(S(=O)(=O)NC(C)(C)C)c1 [Fedratinib] + Nc1nc2[nH]cc(CCc3ccc(C(=O)N[C@@H](CCC(=O)O)C(=O)O)cc3)c2c(=O)[nH]1 [Pemetrexed] (partner 0.2 µM)
Method in brief: as §1

[3] = compound: COC1=CC=C(C=C1)COC2=C(C=C(C=C2)CC3=CN=C(N=C3N)N)OC [GW-2580] + CS(=O)(=O)CCNCc1ccc(-c2ccc3ncnc(Nc4ccc(OCc5cccc(F)c5)c(Cl)c4)c3c2)o1 [Lapatinib] (partner 2 µM)
Method in brief: as §1

[4] = compound: Cc1cnc(Nc2ccc(OCCN3CCCC3)cc2)nc1Nc1cccc(S(=O)(=O)NC(C)(C)C)c1 [Fedratinib] + N=C(N)NC(=N)NCCc1ccccc1 [Phenformin] (partner 250 µM)
Method in brief: as §1

[5] = compound: COC1=CC=C(C=C1)COC2=C(C=C(C=C2)CC3=CN=C(N=C3N)N)OC [GW-2580] + CC(=O)c1c(C)c2cnc(Nc3ccc(N4CCNCC4)cn3)nc2n(C2CCCC2)c1=O [Palbociclib] (partner 0.5 µM)
Method in brief: as §1

[6] = compound: Cc1cnc(Nc2ccc(OCCN3CCCC3)cc2)nc1Nc1cccc(S(=O)(=O)NC(C)(C)C)c1 [Fedratinib] + CCNC(=O)c1noc(-c2cc(C(C)C)c(O)cc2O)c1-c1ccc(CN2CCOCC2)cc1 [Luminespib] (partner 0.01 µM)
Method in brief: as §1

UMC-11
relative viability ([1]; first compound 0.1 µM): 0.229 | relative viability ([1]; first compound 0.3162 µM): 0.228 | relative viability ([1]; first compound 1 µM): 0.193 | relative viability ([2]; first compound 0.1 µM): 0.756 | relative viability ([2]; first compound 0.3162 µM): 0.66 | relative viability ([2]; first compound 1 µM): 0.665 | relative viability ([3]; first compound 0.08 µM): 1.26 | relative viability ([3]; first compound 0.8 µM): 1.11 | relative viability ([3]; first compound 2.53 µM): 0.88 | relative viability ([3]; first compound 8 µM): 1.15 | relative viability ([4]; first compound 0.1 µM): 0.338 | relative viability ([4]; first compound 0.3162 µM): 0.272 | relative viability ([4]; first compound 1 µM): 0.359 | relative viability ([5]; first compound 0.08 µM): 0.329 | relative viability ([5]; first compound 0.8 µM): 0.352 | relative viability ([5]; first compound 8 µM): 0.348 | relative viability ([6]; first compound 0.1 µM): 0.984 | relative viability ([6]; first compound 0.3162 µM): 0.887 | relative viability ([6]; first compound 1 µM): 0.758
